Patent US20080118493A1, “Elevated Hedgehog Pathway Activity In Digestive System Tumors, And Methods Of Treating Digestive Sytem Tumors Having Elevated Hedgehog Pathway Activity” (priority 2003, published 2008)

Legend:
[1] = system: Hh pathway activity; assay: Hh-responsive reporter assay in first passage pancreas carcinoma xenograft cells; assay type: cell-based, human; conditions: PTCH-expressing primary xenografts; 3.0 μM cyclopamine
Excerpt: (§1) Cells and tissues: Origins and sources of cells and tissues are described in the Table (below). First passage pancreatic cancer xenografts were derived from freshly harvested pancreaticoduodenectomy specimens as described^14. […] After reaching 25 mm in greatest dimension, xenograft tumors were harvested, minced, and plated into tissue culture vessels in RPMI, 20% Fetal Bovine Serum (FBS) for assays as described below. The diagnosis of frozen samples from gastric and pancreatic adenocarcinoma resections and adjacent normal stomach and pancreas was microscopically confirmed by two pathologists, and RNA was prepared as described^14.
(§2) Hh-responsive reporter assays: Hh-responsive firefly luciferase and control SV-40 Renilla luciferase reporter assays were performed on subconfluent triplicate cultures as described^22.

[2] = system: tumor cell lines from esophagus, stomach, biliary tract, and pancreas; assay: cells
Description: Viable cell mass was determined by optical density measurements at 490 nm (O.D.490) at 2 and 4 days using the CellTiter96® colorimetric assay (Promega; Madison Wis.). Relative growth was calculated as {OD (day 4)-OD (day 2)}/OD (day 2).

[3] = system: HuCCT1 human cholangiocarcinoma xenograft; assay: HuCCT1 xenograft treatment in athymic (nude) mice; assay type: in vivo; conditions: 50 mg/kg/day, subcutaneous injection
[4] = system: PZp53MED1 medulloblastoma cells; conditions: medulloblastoma-derived cells; cited from earlier work
[5] = system: Hh pathway activity; assay: Hh-inducible reporter assay in HuCCT1 cholangiocarcinoma cells; assay type: cell-based, human; conditions: purified SHH ligand to 25 nM
Description: as §2

[6] = system: single passage pancreatic cancer xenograft cells; assay: Proliferation (MTS) assay in first passage pancreatic cancer xenograft cells; assay type: cell-based, human
Excerpt: as §1

[7] = system: PZp53MED1 medulloblastoma cells; assay: Proliferation assay in medulloblastoma cells; assay type: cell-based; conditions: medulloblastoma cells from a mouse model of Gorlin syndrome, loss of PTCH function

CC1=C2C[C@H]3[C@@H](CC=C4C[C@@H](O)CC[C@@]43C)[C@@H]2CC[C@]12O[C@@H]1C[C@H](C)CN[C@H]1[C@H]2C [cyclopamine]
GLI reporter expression [1]: cyclopamine-sensitive | significant growth inhibition, dependence on PTCH mRNA expression ([2]; 3.0 μM cyclopamine, MTS assay): only in tumor lines expressing PTCH mRNA | inhibition at 3 µM ([2]; Homo sapiens, read-out: growth inhibition): 75 to 95% | survival and adverse reactions ([3]; daily): all mice survived cyclopamine treatment without obvious adverse reactions | tumor regression (xenograft tumor volume) ([3]; within 14 days, tumors grown to 180 mm^3, n=9): Complete or near complete regression of all nine treated tumors | cell killing [4]: can be killed by cyclopamine treatment

SHH ligand: recombinant doubly lipid modified Sonic hedgehog (ShhNp) peptide
augmentation of reporter activity [5]: approximately 8 fold | growth as a function of added SHH concentration ([6]; PX184 cells with 5E1 at a level just sufficient to block growth (0.1 μg/ml)): Growth correlated positively with increasing concentrations | growth ([6]; single passage pancreatic tumor xenograft that did not express PTCH mRNA (PX169)): did not significantly affect growth | change in growth [7]: No significant ligand-induced or antibody-induced change in growth
